From patent US10259810B2, “N-sulfonylated pyrazolo[3,4-b]pyridin-6-carboxamides and method of use” (AbbVie S.à.r.l., priority 2015, dated 2019)

Key:
ΔF508-CFTR [1] = target: T1, ΔF508-CFTR (Homo sapiens, UniProt P13569, DEL508-508); experiment: CFTR cell surface levels using HRP-tagged ΔF508-CFTR expressing CFBE cells, in the presence of a co-corrector; format: cell-based; conditions: HRP-tagged ΔF508-CFTR CFBE cells, in the presence of 3 μM co-corrector; for EC50: read-out: EC50
T1 construct: host or cells: CFBE41o-, doxycycline-inducible
T1 sequence (P13569 with tags, fused parts or gaps DEL508-508): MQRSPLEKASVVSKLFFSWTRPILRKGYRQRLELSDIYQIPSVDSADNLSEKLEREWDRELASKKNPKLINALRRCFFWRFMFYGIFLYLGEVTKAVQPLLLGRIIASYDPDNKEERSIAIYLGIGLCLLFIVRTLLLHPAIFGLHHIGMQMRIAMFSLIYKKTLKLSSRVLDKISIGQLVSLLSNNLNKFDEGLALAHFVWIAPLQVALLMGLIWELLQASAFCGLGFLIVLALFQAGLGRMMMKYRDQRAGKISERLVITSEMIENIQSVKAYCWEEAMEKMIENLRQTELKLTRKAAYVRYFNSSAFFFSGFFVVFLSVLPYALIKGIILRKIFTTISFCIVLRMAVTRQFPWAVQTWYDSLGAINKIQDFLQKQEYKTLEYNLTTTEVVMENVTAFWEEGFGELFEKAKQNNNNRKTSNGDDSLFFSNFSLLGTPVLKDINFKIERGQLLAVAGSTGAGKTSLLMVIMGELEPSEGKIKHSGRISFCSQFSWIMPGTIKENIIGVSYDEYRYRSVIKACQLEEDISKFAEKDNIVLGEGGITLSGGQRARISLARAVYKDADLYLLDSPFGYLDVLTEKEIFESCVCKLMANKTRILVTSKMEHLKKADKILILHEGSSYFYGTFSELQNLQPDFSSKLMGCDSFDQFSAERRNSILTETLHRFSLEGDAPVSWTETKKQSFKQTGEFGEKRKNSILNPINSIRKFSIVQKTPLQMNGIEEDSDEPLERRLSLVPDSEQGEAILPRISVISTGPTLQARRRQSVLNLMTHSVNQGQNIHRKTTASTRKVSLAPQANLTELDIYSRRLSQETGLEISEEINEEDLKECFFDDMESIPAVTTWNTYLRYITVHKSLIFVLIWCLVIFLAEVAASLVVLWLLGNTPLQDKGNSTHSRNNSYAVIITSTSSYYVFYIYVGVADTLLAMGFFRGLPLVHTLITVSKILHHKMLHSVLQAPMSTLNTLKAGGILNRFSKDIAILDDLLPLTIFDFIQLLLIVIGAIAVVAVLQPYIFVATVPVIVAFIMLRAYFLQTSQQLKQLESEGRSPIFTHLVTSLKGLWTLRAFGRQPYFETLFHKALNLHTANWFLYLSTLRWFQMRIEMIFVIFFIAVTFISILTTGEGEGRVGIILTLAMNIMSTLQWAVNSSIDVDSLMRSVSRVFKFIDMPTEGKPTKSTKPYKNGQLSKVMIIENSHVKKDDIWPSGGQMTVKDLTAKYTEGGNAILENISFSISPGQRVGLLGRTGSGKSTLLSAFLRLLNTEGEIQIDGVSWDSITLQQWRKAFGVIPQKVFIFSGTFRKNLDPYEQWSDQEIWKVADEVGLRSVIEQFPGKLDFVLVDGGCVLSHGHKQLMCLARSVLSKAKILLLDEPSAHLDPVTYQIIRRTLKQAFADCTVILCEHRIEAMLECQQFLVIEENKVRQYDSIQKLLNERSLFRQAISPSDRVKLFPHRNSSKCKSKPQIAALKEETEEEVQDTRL
Summary of the method: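 Chemiluminescent read-out of surface HRP (15 min, dark) after PBS washes. Activity is normalized as 100×(sample−DMSO)/(3 μM co-corrector alone−DMSO).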

ΔF508-CFTR [2] = target: T1, ΔF508-CFTR; experiment: CFTR cell surface levels using HRP-tagged ΔF508-CFTR expressing CFBE cells, intrinsic corrector capacity; format: cell-based; set-up: % Activation: concentration or dose not given beside the values; conditions: HRP-tagged ΔF508-CFTR expressing CFBE41o- cells, compound alone (intrinsic corrector capacity), 20 hours at 33° C.; for EC50: read-out: EC50
Summary of the method: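 Read-out: chemiluminescent HRP activity of ECL4-HRP-tagged ΔF508-CFTR at the cell surface, 15 min substrate in dark. Normalized as 100×(sample−DMSO)/(positive control−DMSO).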

SMILES | % Activation (ΔF508-CFTR [1]) [%] | EC50 (ΔF508-CFTR [1]) [µM] | % Activation (ΔF508-CFTR [2]) [%] | EC50 (ΔF508-CFTR [2]) [µM]
CCS(=O)(=O)NC(=O)c1cc(-c2ccc(N3CCOCC3)nc2)c2c(C)nn(-c3ccc(F)cc3F)c2n1 [Compound 61, 1-(2,4-difluorophenyl)-N-(ethanesulfonyl)-3-methyl-4-[6-(morpholin-4-yl)pyridin-3-yl]-1H-pyrazolo[3,4-b]pyridine-6-carboxamide] | 415.3 | 0.506 | 184.35 | 1
CCS(=O)(=O)NC(=O)c1cc(-c2cnc(N3CCOCC3)nc2)c2c(C(C)C)nn(-c3cccc(N(C)C)c3)c2n1 [Compound 62, 1-[3-(dimethylamino)phenyl]-N-(ethanesulfonyl)-4-[2-(morpholin-4-yl)pyrimidin-5-yl]-3-(propan-2-yl)-1H-pyrazolo[3,4-b]pyridine-6-carboxamide] | 631.2 | 0.532 | 350.85 | 0.596
CC(C)c1nn(C2CCCCC2)c2nc(C(=O)NS(C)(=O)=O)cc(-c3ccc(N4CCC(F)(F)C4)nc3)c12 [Compound 64, 1-cyclohexyl-4-[6-(3,3-difluoropyrrolidin-1-yl)pyridin-3-yl]-N-(methanesulfonyl)-3-(propan-2-yl)-1H-pyrazolo[3,4-b]pyridine-6-carboxamide] | 362.45 | 0.444 | 152.75 | 0.935
Cc1nn(-c2cccc(Cl)c2)c2nc(C(=O)NS(C)(=O)=O)cc(-c3ccc(N4CCOCC4)cc3)c12 [Compound 65, 1-(3-chlorophenyl)-N-(methanesulfonyl)-3-methyl-4-[4-(morpholin-4-yl)phenyl]-1H-pyrazolo[3,4-b]pyridine-6-carboxamide] | 332.05 | 0.464 | 162.33 | 1.53
CCS(=O)(=O)NC(=O)c1cc(-c2ccc(N3CCOCC3)cc2)c2c(C)nn(-c3cccc(Cl)c3)c2n1 [Compound 66, 1-(3-chlorophenyl)-N-(ethanesulfonyl)-3-methyl-4-[4-(morpholin-4-yl)phenyl]-1H-pyrazolo[3,4-b]pyridine-6-carboxamide] | 332.85 | 6.67 | 142.65 | 1.86
Cc1nn(-c2cccc(F)c2)c2nc(C(=O)NS(C)(=O)=O)cc(-c3ccc(N4CCOCC4)cc3)c12 [Compound 67, 1-(3-fluorophenyl)-N-(methanesulfonyl)-3-methyl-4-[4-(morpholin-4-yl)phenyl]-1H-pyrazolo[3,4-b]pyridine-6-carboxamide] | 371.62 | 0.241 | 181.96 | 0.362
CCS(=O)(=O)NC(=O)c1cc(-c2ccc(N3CCOCC3)cc2)c2c(C)nn(-c3cccc(F)c3)c2n1 [Compound 68, N-(ethanesulfonyl)-1-(3-fluorophenyl)-3-methyl-4-[4-(morpholin-4-yl)phenyl]-1H-pyrazolo[3,4-b]pyridine-6-carboxamide] | 456.6 | 0.847 | 253.3 | 1.08
Cc1nn(-c2ccc(OC(F)(F)F)cc2)c2nc(C(=O)NS(C)(=O)=O)cc(-c3ccc(N4CCOCC4)cc3)c12 [Compound 69, N-(methanesulfonyl)-3-methyl-4-[4-(morpholin-4-yl)phenyl]-1-[4-(trifluoromethoxy)phenyl]-1H-pyrazolo[3,4-b]pyridine-6-carboxamide] | 362.03 | 0.404 | 182.08 | 0.632
CCS(=O)(=O)NC(=O)c1cc(-c2ccc(N3CCOCC3)cc2)c2c(C)nn(-c3ccc(OC(F)(F)F)cc3)c2n1 [Compound 70, N-(ethanesulfonyl)-3-methyl-4-[4-(morpholin-4-yl)phenyl]-1-[4-(trifluoromethoxy)phenyl]-1H-pyrazolo[3,4-b]pyridine-6-carboxamide] | 342.85 | 0.41 | 167.8 | 0.621
COc1cccc(-n2nc(C)c3c(-c4ccc(N5CCOCC5)cc4)cc(C(=O)NS(C)(=O)=O)nc32)c1 [Compound 72, N-(methanesulfonyl)-1-(3-methoxyphenyl)-3-methyl-4-[4-(morpholin-4-yl)phenyl]-1H-pyrazolo[3,4-b]pyridine-6-carboxamide] | 400.9 | 5.61 | 232.5 | 2.23
CCS(=O)(=O)NC(=O)c1cc(-c2ccc(N3CCOCC3)cc2)c2c(C)nn(-c3cccc(OC)c3)c2n1 [Compound 73, N-(ethanesulfonyl)-1-(3-methoxyphenyl)-3-methyl-4-[4-(morpholin-4-yl)phenyl]-1H-pyrazolo[3,4-b]pyridine-6-carboxamide] | 423.35 | 0.49 | 254.1 | 0.657
COCCN(C)c1cccc(-n2nc(C(C)C)c3c(-c4ccc(N5CCOCC5)cc4)cc(C(=O)NS(C)(=O)=O)nc32)c1 [Compound 76, N-(methanesulfonyl)-1-{3-[(2-methoxyethyl)(methyl)amino]phenyl}-4-[4-(morpholin-4-yl)phenyl]-3-(propan-2-yl)-1H-pyrazolo[3,4-b]pyridine-6-carboxamide] | 581.37 | 0.633 | 430.87 | 0.528
CC(C)c1nn(-c2cccc(N(C)C)c2)c2nc(C(=O)NS(C)(=O)=O)cc(-c3cnc(N(C)C)nc3)c12 [Compound 77, 1-[3-(dimethylamino)phenyl]-4-[2-(dimethylamino)pyrimidin-5-yl]-N-(methanesulfonyl)-3-(propan-2-yl)-1H-pyrazolo[3,4-b]pyridine-6-carboxamide] | 449.85 | 0.831 | 296.45 | 0.639
CCS(=O)(=O)NC(=O)c1cc(-c2cnc(N(C)C)nc2)c2c(C(C)C)nn(-c3cccc(N(C)C)c3)c2n1 [Compound 78, 1-[3-(dimethylamino)phenyl]-4-[2-(dimethylamino)pyrimidin-5-yl]-N-(ethanesulfonyl)-3-(propan-2-yl)-1H-pyrazolo[3,4-b]pyridine-6-carboxamide] | 520.7 | 0.66 | 333.2 | 1.88
CC(=O)Nc1ccc(-c2cc(C(=O)NS(C)(=O)=O)nc3c2c(C(C)C)nn3C2CCCCC2)cc1 [Compound 79, 4-(4-acetamidophenyl)-1-cyclohexyl-N-(methanesulfonyl)-3-(propan-2-yl)-1H-pyrazolo[3,4-b]pyridine-6-carboxamide] | 501.6 | 0.555 | 280.9 | 1.23
CC(C)c1nn(-c2cccc(N(C)C)c2)c2nc(C(=O)NS(C)(=O)=O)cc(-c3ccc(N4CCC(C#N)CC4)cc3)c12 [Compound 81, 4-[4-(4-cyanopiperidin-1-yl)phenyl]-1-[3-(dimethylamino)phenyl]-N-(methanesulfonyl)-3-(propan-2-yl)-1H-pyrazolo[3,4-b]pyridine-6-carboxamide] | 646.44 | 0.253 | 495.8 | 0.385
COCCN(C)c1ccc(-c2cc(C(=O)NS(C)(=O)=O)nc3c2c(C(C)C)nn3-c2cccc(N(C)C)c2)cc1 [Compound 82, 1-[3-(dimethylamino)phenyl]-N-(methanesulfonyl)-4-{4-[(2-methoxyethyl)(methyl)amino]phenyl}-3-(propan-2-yl)-1H-pyrazolo[3,4-b]pyridine-6-carboxamide] | 535.93 | 0.383 | 366.27 | 0.472
CC(C)c1nn(-c2cccc(N(C)C)c2)c2nc(C(=O)NS(C)(=O)=O)cc(-c3ccc(N4CCC(C#N)CC4)nc3)c12 [Compound 83, 4-[6-(4-cyanopiperidin-1-yl)pyridin-3-yl]-1-[3-(dimethylamino)phenyl]-N-(methanesulfonyl)-3-(propan-2-yl)-1H-pyrazolo[3,4-b]pyridine-6-carboxamide] | 567.7 | 0.425 | 391.5 | 0.547
COCCN(C)c1ccc(-c2cc(C(=O)NS(C)(=O)=O)nc3c2c(C(C)C)nn3-c2cccc(N(C)C)c2)cn1 [Compound 84, 1-[3-(dimethylamino)phenyl]-N-(methanesulfonyl)-4-{6-[(2-methoxyethyl)(methyl)amino]pyridin-3-yl}-3-(propan-2-yl)-1H-pyrazolo[3,4-b]pyridine-6-carboxamide] | 468.2 | 0.408 | 311.7 | 0.66
COCCN(C)c1ccc(-c2cc(C(=O)NS(C)(=O)=O)nc3c2c(C(C)C)nn3-c2cccc(N3CCOCC3)c2)cc1 [Compound 88, N-(methanesulfonyl)-4-{4-[(2-methoxyethyl)(methyl)amino]phenyl}-1-[3-(morpholin-4-yl)phenyl]-3-(propan-2-yl)-1H-pyrazolo[3,4-b]pyridine-6-carboxamide] | 546.2 | 0.413 | 389.73 | 0.474
CC(C)c1nn(-c2cccc(N(C)C)c2)c2nc(C(=O)NS(C)(=O)=O)cc(-c3ccc(N(C)C4CCOCC4)nc3)c12 [Compound 89, 1-[3-(dimethylamino)phenyl]-N-(methanesulfonyl)-4-{6-[methyl(oxan-4-yl)amino]pyridin-3-yl}-3-(propan-2-yl)-1H-pyrazolo[3,4-b]pyridine-6-carboxamide] | 609.48 | 0.396 | 422.78 | 0.646
